Laboratory results published in patent publication US5008416A, “Organogermanium compound, process for the preparation of same as well as use thereof” (Sanwa Kagaku Kenkyusho Co., Ltd., priority 1989, dated 1991).

Columns and labels:
Lewis lung carcinoma = test: Anti-tumor effect, Lewis lung carcinoma (Pharmacological Experiment 6); format: in vivo, mouse (C57BL/6 male); conditions: for Inhibition (development of solid tumor) / Tumor weight: 5 days, 14th day; for Tumor weight: mean ± standard deviation, n = 10
Method: An anti-tumor effect of the organogermanium compound according to the invention is examined.
C57BL/6 male mice (n=10) as experimental animals were subcutaneously implanted with 1×10^5 cells of Lewis lung carcinoma to form a solid tumor. The organogermanium compound (Example 4) dissolved in 4% bovine serum albumin was orally administered at the dose of 0.1, 1.0 and 10.0 mg/kg once a day for 5 days on days 1 to 5 after the tumor implantation.
On 14th day from the implantation, formed solid tumor was removed and weighed. An antitumor effect represented the inhibitory percent of the compound on the development of solid tumor.

[1] = system: chronic liver injury induced by carbon tetrachloride (serum transaminases); test: Action to chronic liver injury induced by carbon tetrachloride (Pharmacological Experiment 11); format: in vivo, rat (Wister male); conditions: for s-GOT / s-GPT: 10 weeks every other day, mean ± standard error, n = 10
Method: An action of the organogermanium compound of the invention to a chronic liver injury to be induced by carbon tetrachloride, as an experimental model for liver injury is checked, through measurement of serum transaminases, as indexes.
To Wister male rats (n=10 for each group), carbon tetrachloride was intraperitoneally administered at the dose of 480 mg/kg at 2 times by each week for 10 weeks to induce a chronic liver injury.
To the […] in each Test group, the compound according to the invention (Example 4) dissolved in 4% bovine serum albumin solution was orally administered at the dose of 0.1, 1.0 and 10.0 mg/kg/day over 10 weeks in every other day.
After having lapsed 2 days from the final administration of carbon tetrachloride, a blood letting was carried out to measure GOT and GPT values in serum.

normal mice = test: Influence on delayed type hypersensitivity in normal mice (Pharmacological Experiment 4); format: in vivo, mouse (ICR male); conditions: for Food pad swelling: 24 hours, mean ± standard error, n = 10
Method: Influence of the organogermanium compound on the DTH response of normal mice is investigated.
Normal ICR male mice (age of 8 weeks) were immunized with 10^6 cells of SRBC by intravenous route. On 4 days after immunization, the organogermanium compound (Example 4) dissolved in 4% bovine serum albumin was orally administered at the dose of 0.1, 1.0 and 10.0 mg/kg. Just after the treatment with the compound, mice were challenged to intracutaneus injection of 2×10^8 cells of SRBC to hind food pad.
After 24 hours from the injection, the swelling of the foot pad was observed by a stereoscopic microscope.

Sarcoma 180 tumor cells = test: Anti-tumor effect, Sarcoma 180 (Pharmacological Experiment 7); format: in vivo, mouse (ICR male); conditions: for Inhibition (development of solid tumor) / Tumor weight: 10 days, 20th day; for Tumor weight: mean ± standard error, n = 10
Method: An anti-tumor effect of the organogermanium compound according to the invention is examined to Sarcoma 180 tumor cells.
Sarcoma 180 tumor cells were subcutaneously implanted with 2×10^6cells to male ICR mice (n=10) as experimental animals to form a solid tumor. The organogermanium compound (Example 4) dissolved in 4% bovine serum albumin was orally administered at the dose of 0.1, 1.0 and 10.0 mg/kg once a day for 10 days on the day after the implantation.
On the 20th day from the implantation, formed solid tumor was removed and weighed. An antitumor effect represented the inhibitory percent of the compound on the development of solid tumor.

[2] = 1.0 mg/kg orally once a day, (*) p < 0.05 vs Control
[3] = 1.0 mg/kg/day orally, (*) p < 0.05 vs Control

Substance: Sodium 2-oxygermylethanesulfonate polymer [Example 4]
- Inhibition (development of solid tumor) (Lewis lung carcinoma; 0.1 mg/kg orally once a day): 6.8%
- Tumor weight (Lewis lung carcinoma; 0.1 mg/kg orally once a day): 1.77 ± 0.47 g
- Inhibition (development of solid tumor) (Lewis lung carcinoma; 1.0 mg/kg orally once a day): 46.3%
- Tumor weight (Lewis lung carcinoma; [2]): 1.02 ± 0.16 g
- Inhibition (development of solid tumor) (Lewis lung carcinoma; 10.0 mg/kg orally once a day): 28.4%
- Tumor weight (Lewis lung carcinoma; 10.0 mg/kg orally once a day): 1.36 ± 0.31 g
- Growth of Lewis lung carcinoma (result in words) (Lewis lung carcinoma; 0.1, 1.0 and 10.0 mg/kg orally): significantly inhibited the growth of Lewis lung carcinoma
- s-GOT ([1]; 0.1 mg/kg/day orally): 1200 ± 180
- s-GPT ([1]; 0.1 mg/kg/day orally): 1005 ± 97 Karmen Unit
- s-GOT [1, 3]: 1054 ± 140
- s-GPT [1, 3]: 940 ± 83 Karmen Unit
- s-GPT ([1]; 10.0 mg/kg/day orally): 1086 ± 112 Karmen Unit
- s-GOT ([1]; 10.0 mg/kg/day orally, (*) p < 0.05 vs Control): 1020 ± 164
- GOT and GPT values (result in words) ([1]; by the dose of 1.0 mg/kg orally): noticeably decreasing GOT and GPT values
- Food pad swelling (normal mice; 0.1 mg/kg orally, (**) p < 0.01 vs Control): 70.9 ± 9.1 x 0.01 mm
- Food pad swelling (normal mice; 1.0 mg/kg orally, (***) p < 0.001 vs Control): 59.0 ± 6.6 x 0.01 mm
- Food pad swelling (normal mice; 10.0 mg/kg orally, (*) p < 0.05 vs Control): 86.9 ± 10.2 x 0.01 mm
- DTH response of normal mice (result in words) (normal mice; 0.1, 1.0 and 10.0 mg/kg orally): significantly reduced the DTH response of normal mice
- Inhibition (development of solid tumor) (Sarcoma 180 tumor cells; 0.1 mg/kg orally once a day): 28%
- Tumor weight (Sarcoma 180 tumor cells; 0.1 mg/kg orally once a day): 1.87 ± 0.46 g
- Inhibition (development of solid tumor) (Sarcoma 180 tumor cells; 1.0 mg/kg orally once a day): 69%
- Tumor weight (Sarcoma 180 tumor cells; [2]): 0.82 ± 0.22 g
- Inhibition (development of solid tumor) (Sarcoma 180 tumor cells; 10.0 mg/kg orally once a day): 38%
- Tumor weight (Sarcoma 180 tumor cells; 10.0 mg/kg orally once a day): 1.61 ± 0.29 g
- Growth of Sarcoma 180 solid tumor (result in words) (Sarcoma 180 tumor cells; 0.1, 1.0 and 10.0 mg/kg orally): reduced the growth of Sarcoma 180 solid tumor cells
